# Data published in US7902421B2, “Animal model for schizophrenia” (London Health Sciences Centre Research Inc., priority 2003, dated 2011).
# Entries after “also recorded” stand apart in the source; their conditions may differ.
# How the values were obtained:
# [1] = tested on: dopaminergic fibers from the lower layers of the prefrontal cortex; test: Intracerebral stereotaxic injections of 6-hydroxydopamine eliminating dopaminergic fibers in adult rats; format: in vivo, rat; settings: unpublished work by the inventor
# Text: In the normal brain, dopaminergic fibers are distributed mainly in lower layers of the prefrontal cortex, Dopaminergic-fibers are abnormally distributed within the prefrontal cortex in schizophrenic patients with very low density in the lower layers (Akil, Pierri, Whitehead, Edgar, Mohila, Sampson and Lewis, American Journal of Psychiatry 1999, 156:1580-1589). […] Based on this work the inventor believed that abnormal laminar distribution of dopaminergic fibers in the prefrontal cortex may be responsible for the enhanced dopaminergic activity seen in schizophrenia. While abnormal distribution of dopaminergic fibers has been described in the prefrontal cortex in schizophrenic brains (Akil, Pierri, Whitehead, Edgar, Mohila, Sampson and Lewis, American Journal of Psychiatry 1999, 156:1580-1589), this has never implicated in the manifestation of dopaminergic hyperactivity.
# [2] = tested on: subcortical dopamine responsivity; test: Behavioral testing (sniffing, locomotion, rearing) after saline or d-amphetamine challenge; format: in vivo, rat
# Experimental: Animals at 5 or 10 weeks of age were habituated to the testing area for three hours each on 2 consecutive days. On the 3rd day, animals were habituated for an hour and then injected with saline (0.2 ml, l.p.) and their behaviors were monitored visually for an hour. They were then injected with d-amphetamine (5 mg/kg, l.p.) and their behaviors were monitored for an additional one-hour. An examiner who was blind to the animal groups performed testing. Several behavioral measures including locomotion, rearing (vertical activity), sniffing and grooming were monitored. Different cohorts of animals were used for testing at 5 and 10 weeks. For stress response, animals were submerged in water at room temperature for 5 min in a large container, then they were placed in a plexiglass box and their behaviors (similar to those described above) were visually monitored,
# For novelty induced stress response, animals were subjected to novel environment or object and their motor behaviors were monitored. Behavioral data was analyzed using standard statistical methods (Rajakumar, Laurier, Niznik and Stoessi, Synapse 1997, 26: 199-208).
# [3] = target: T1, (Homo sapiens, UniProt P08138); settings: cited from earlier work
# T1 sequence (P08138 29-427): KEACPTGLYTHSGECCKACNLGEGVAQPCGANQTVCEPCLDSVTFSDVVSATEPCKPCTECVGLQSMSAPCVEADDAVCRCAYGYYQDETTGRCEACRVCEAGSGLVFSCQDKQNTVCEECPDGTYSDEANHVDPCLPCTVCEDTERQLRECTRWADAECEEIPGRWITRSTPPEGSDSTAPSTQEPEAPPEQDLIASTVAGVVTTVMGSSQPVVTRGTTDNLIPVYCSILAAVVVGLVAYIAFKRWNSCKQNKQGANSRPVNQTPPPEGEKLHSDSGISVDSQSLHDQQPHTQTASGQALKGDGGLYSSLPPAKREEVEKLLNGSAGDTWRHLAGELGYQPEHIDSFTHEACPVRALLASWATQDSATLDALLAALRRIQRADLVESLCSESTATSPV
# [4] = tested on: subplate cells in the developing prefrontal cortex; test: Apoptosis of subplate cells after neonatal intracerebral injections of nerve growth factor (activated caspase-3 immunoreactivity); format: in vivo, rat; settings: for apoptosis of subplate cells / neurons: intracerebral injections into developing prefrontal cortex of postnatal rats (250 ng/μl/site, postnatal days 3 and 4)
# Experimental: Neonatal rat pups received daily injections of nerve growth factor into the developing prefrontal cortex at 2, 3 and 4 days of age (similarly other animals such as mice or monkeys can be injected at the appropriate neonatal or fetal period of prefrontal cortical development characterized by the expression of p75 receptor in subplate cells). Scalp of rat pups were sprayed with a topical anesthesia, and 1 μl of nerve growth factor ([…] in saline, human recombinant Nerve growth factor, Cedarlane Laboratories) was pressure injected with a 30 gauges needle into the developing prefrontal cortex on each side. Injections were made 1.5 mm in front of the bregma which is visible through the scalp, 0.5 mm lateral to the midline and 1.5 mm deep to the scalp surface. Injections were made slowly over 10 sec and the needle was left in situ for an additional 30 sec. Pups were kept separated from their mother for approximately 20 min during injecttion sessions. During this time they were kept warm. Control rat pups received exactly similar treatment but injected with saline. Experimental and control rats were marked with an ear punch on the right and left ears, respectively. After injection session pups were returned to their mother and allowed to grow under standard conditions.
# Both neonatally nerve growth factor or saline injected rats were anesthetized with an intraperitoneal injection of sodium pentobarbital (Somnatol, 40 mg/kg) at 5 weeks or 10 weeks of age and perfused transcardially with a solution containing 4% freshly depolymerized paraformaldehyde in 0.1 M phosphate buffer at pH 7.4. Brains were removed, cryoprotected in 18% buffered-sucrose for 24 hours at 4° C., and sectioned in a freezing microtome 40 μm thick sections were processed for Nissl staining and immunohistochemistry as described previously (Rajakumar, Elisevich and Flumerfelt, Journal of Comparative Neurology 1994, 350:324-336).
# prefrontal cortex = test: Histological examination and immunohistochemistry of brains of neonatally injected rats; format: in vivo, rat
# Experimental: […] Brains were removed, cryoprotected in 18% buffered-sucrose for 24 hours at 4° C., and sectioned in a freezing microtome 40 μm thick sections were processed for Nissl staining and immunohistochemistry as described previously (Rajakumar, Elisevich and Flumerfelt, Journal of Comparative Neurology 1994, 350:324-336).
# [5] = at 5 weeks, d-amphetamine 5 mg/kg i.p. vs saline, control and experimental animals
# [6] = at 5 weeks, saline or d-amphetamine challenge, n=30
# [7] = at 10 weeks, d-amphetamine challenge, n=36
# [8] = adult rat, neonatal injections, vs control
compound,measurement,setting,value
NCCc1cc(O)c(O)cc1O [6-hydroxydopamine],subcortical dopaminergic activity to systemic injections of amphetamine,[1],markedly enhanced subcortical dopaminergic activity
"C[C@H](N)Cc1ccccc1 [d-amphetamine, reference compound]",effect of amphetamine injection on sniffing,[2]; [5],increases sniffing in both groups of animals
same,effect of amphetamine injection on total duration of locomotion,[2]; [5],increases the total duration of locomotion in both groups of animals
same,effect of amphetamine injection on sniffing,"[2]; at 10 weeks, d-amphetamine 5 mg/kg i.p. vs saline, control and experimental animals",increases sniffing in both groups of animals
Pro-nerve growth factor,increased affinity for p76 receptors,[3],> 1000 fold
nerve growth factor,apoptosis of subplate cells / neurons,[4],resulting in apoptosis of the subplate cells; also recorded: specifically induced apoptosis of subplate neurons
same,apoptosis of subplate cells / neurons,[4]; listed as NGF,induces apoptosis
same,effect on the hippocampus or other parts of the cerebral cortex,"[4]; method of injection adopted, neonatal period",does not affect the hippocampus or any other parts of the cerebral cortex
same,"mechanical, ischemic or inflammatory lesion","[4]; postnatal rat brain, intracerebral injections","without causing any substantial mechanical, ischemic or inflammatory lesion"
same,immunoreactivity of activated caspase-3 in subplate cells,"[4]; six day-old rat pup, daily intracerebral injections on postnatal days 2, 3 and 4",undergoing apoptosis
same,subcortical dopaminergic responsivity,"[2]; adult (after the 8th week), injections of d-amphetamine",enhanced subcortical dopamine responsivity; also recorded: increased subcortical dopaminergic responsivity
same,response to changes in the environment,"[2]; after the 8th week, neonatally injected rats",prolonged and enhanced response
same,"total duration of locomotor behavior, experimental vs control animals",[2]; [6],no differences
same,"total duration of rearing behavior, experimental vs control animals",[2]; [6],no differences
same,"total duration of sniffing behavior, experimental vs control animals",[2]; [6],no differences
same,"total duration of locomotor behavior, experimental vs control animals",[2]; [7],significantly increased locomotor behavior
same,"total duration of rearing behavior, experimental vs control animals",[2]; [7],significantly increased rearing
same,"total duration of sniffing behavior, experimental vs control animals","[2]; at 10 weeks, saline or d-amphetamine challenge, n=36",no differences
same,"growth and behavioral patterns, experimental vs control rats",[2]; until 8 weeks of age,comparable growth and behavioral patterns
same,parvalbumin neuronal number in the prefrontal cortex,"prefrontal cortex; adult rat, control vs NGF-treated",comparable
same,GABA transporter-1 immunoreactive synapses in the prefrontal cortex,prefrontal cortex; [8],fewer; also recorded: markedly diminished
same,density of tyrosine hydroxylase labeled (dopaminergic) fibers in lower layers of the prefrontal cortex,prefrontal cortex; [8],considerably decreased; also recorded: decreased density
same,laminar distribution of parvalbumin immunoreactive terminals in the prefrontal cortex,prefrontal cortex; [8],altered laminar distribution of parvalbumin immunoreactive terminals
same,GABA transporter-1 immunoreactive synapses in the prefrontal cortex,"prefrontal cortex; adult rat, neonatal injections, vs control, listed as NGF",markedly diminished
same,density of tyrosine hydroxylase labeled (dopaminergic) fibers in lower layers of the prefrontal cortex,"prefrontal cortex; adult rat, neonatal injections, vs control, listed as Nerve growth factor",decreased dopaminergic fibers
same,gross structure throughout the brain,prefrontal cortex; histological examination of neonatally injected rats,apparently normal gross structure
same,laminar distribution of GABAergic terminals in the prefrontal cortex,prefrontal cortex; injected animals as adults,altered laminar distribution
same,lateral and third ventricular size,prefrontal cortex; neonatally injected rats in comparison to control animals,moderately enlarged; also recorded: relatively larger
same,volume of lateral ventricles,"prefrontal cortex; rat sacrificed at 6 months of age, neonatal injections, vs control",increased considerably
